Format in all cases: in vivo
Series [1] concerns Beet Armyworm (Spodoptera exigua, LAPHEG) ("BAW"). As to the kind of experiment: Bioassays on BAW, 128-well diet tray assay. The settings on record: 168 h, read-out: BAW % Control (or Mortality) rating. The procedure: (§1) Certain molecules disclosed in this document were tested against BAW, CEW, and CL using procedures described in the following examples. In the reporting of the results, the “BAW, CEW, & CL Rating Table” was used (See Table Section).
Bioassays on BAW were conducted using a 128-well diet tray assay. one to five second instar BAW larvae were placed in each well (3 mL) of the diet tray that had been previously filled with 1 mL of artificial diet to which 50 μg/cm^2 of the test compound (dissolved in 50 μL of 90:10 acetone-water mixture) had been applied (to each of eight wells) and then allowed to dry. Trays were covered with a clear self-adhesive cover and held at 25° C., 14:10 light-dark for five to seven days. Percent mortality was recorded for the larvae in each well; activity in the eight wells was then averaged. The results are indicated in the table entitled “Table ABC: Biological Results” (See Table Section).

In series [2] the test system is Cabbage Looper (Trichoplusia ni, TRIPNI) ("CL"). Put plainly: Bioassays on CL, 128-well diet tray assay. The settings on record: 168 h, read-out: CL % Control (or Mortality) rating. Here is the method: as §1
Bioassays on CL were conducted using a 128-well diet tray assay. one to five second instar CL larvae were placed in each well (3 mL) of the diet tray that had been previously filled with 1 mL of artificial diet to which 50 μg/cm^2 of the test compound (dissolved in 50 μL of 90:10 acetone-water mixture) had been applied (to each of eight wells) and then allowed to dry. Trays were covered with a clear self-adhesive cover and held at 25° C., 14:10 light-dark for five to seven days. Percent mortality was recorded for the larvae in each well; activity in the eight wells was then averaged. The results are indicated in the table entitled “Table ABC: Biological Results” (See Table Section).

The subject of series [3] is Yellow Fever Mosquito (Aedes aegypti, AEDSAE) ("YFM"). Put plainly: Bioassays on YFM, 96-well plate larval assay. The settings on record: about 1 day-old larvae, from 4000 ppm DMSO master plate diluted, room temperature, scored after 3 days. Here is the method: Certain molecules disclosed in this document were tested against YFM using procedures described in the following paragraph. In the reporting of the results, the “YFM Rating Table” was used (See Table Section).
Master plates containing 400 μg of a molecule dissolved in 100 μL of dimethyl sulfoxide (DMSO) (equivalent to a 4000 ppm solution) are used. A master plate of assembled molecules contains 15 μL per well. To this plate, 135 μL of a 90:10 water:acetone mixture is added to each well. A robot (Biomek® NXP Laboratory Automation Workstation) is programmed to dispense 15 μL aspirations from the master plate into an empty 96-well shallow plate (“daughter” plate). There are 6 reps (“daughter” plates) created per master. The created daughter plates are then immediately infested with YFM larvae.
The day before plates are to be treated, mosquito eggs are placed in Millipore water containing liver powder to begin hatching (4 g. into 400 mL). After the daughter plates are created using the robot, they are infested with 220 μL of the liver powder/larval mosquito mixture (about 1 day-old larvae). After plates are infested with mosquito larvae, a non-evaporative lid is used to cover the plate to reduce drying. Plates are held at room temperature for 3 days prior to grading. After 3 days, each well is observed and scored based on mortality.

[4] abbreviates: second instar larvae, 50 μg/cm^2 on artificial diet, 25° C., five to seven days, average of eight wells.

These results are taken from patent US9445594B2, “Molecules having certain pesticidal utilities, intermediates, compositions, and processes, related thereto” (priority 2014, dated 2016).

Each structure is given as a SMILES string. Where two headings read alike, the source gives them in different places.

As usually defined, the mortality is the share of the test organisms that died. As to `CCOc1cccc(NC(=O)Nc2ccc(-c3ncn(-c4ccc(OC(F)(F)F)cc4)n3)cc2)c1` [F39, 1-(3-ethoxyphenyl)-3-(4-(1-(4-(trifluoromethoxy)phenyl)-1H-1,2,4-triazol-3-yl)phenyl)urea], the mortality at 50 µg/cm2 in series [1] (setting [4]) is 0%; in series [2] (setting [4]), 50 to 100%. Further, the “YFM % Control (or Mortality) rating” value in series [3] was “D (No activity noticed in this bioassay)”.

Turning to `CSc1ccccc1-c1ccccc1NC(=S)Nc1ccc(-c2ncn(-c3ccc(OC(F)(F)F)cc3)n2)cc1` [F42, 1-(2′-(Methylthio)-[1,1′-biphenyl]-2-yl)-3-(4-(1-(4-(trifluoromethoxy)phenyl)-1H-1,2,4-triazol-3-yl)phenyl)thiourea], the mortality at 50 µg/cm2 in series [1] (setting [4]) and in series [2] (setting [4]) was 50 to 100% throughout. The “YFM % Control (or Mortality) rating” value in series [3] is reported as “B (More than 0 - Less than 80)”.

As to `FC(F)(F)Oc1ccc(-n2cnc(-c3ccc(NC(=S)Nc4ccccc4-c4nnco4)cc3)n2)cc1` [F44, 1-(2-(1,3,4-Oxadiazol-2-yl)phenyl)-3-(4-(1-(4-(trifluoromethoxy)phenyl)-1H-1,2,4-triazol-3-yl)phenyl)thiourea], the mortality at 50 µg/cm2 in series [1] (setting [4]) and in series [2] (setting [4]) was 0% each time. Also, the “YFM % Control (or Mortality) rating” value in series [3] is reported as “D (No activity noticed in this bioassay)”.

Turning to `CC(C)c1ccccc1NC(=S)NCc1ccc(-c2ncn(-c3ccc(OC(F)(F)F)cc3)n2)cc1` [F45, 1-(2-isopropylphenyl)-3-(4-(1-(4-(trifluoromethoxy)phenyl)-1H-1,2,4-triazol-3-yl)benzyl)thiourea], the mortality at 50 µg/cm2 in series [1] (setting [4]) fell in the range of 0 to 50%; in series [2] (setting [4]), 50 to 100%. Besides, in series [3], the “YFM % Control (or Mortality) rating” value is on record as “A (80-100)”.

`FC(F)(F)Oc1ccc(-n2cnc(-c3ccc(NC(=S)Nc4ccccc4-c4ccccc4)cc3)n2)cc1` [F47, 1-([1,1′-Biphenyl]-2-yl)-3-(4-(1-(4-(trifluoromethoxy)phenyl)-1H-1,2,4-triazol-3-yl)phenyl)thiourea]: the mortality at 50 µg/cm2 in series [1] (setting [4]) was 0%; in series [2] (setting [4]), 50 to 100%. For the same molecule, the “YFM % Control (or Mortality) rating” value in series [3] is reported as “D (No activity noticed in this bioassay)”.

Turning to `O=C(Nc1ccc(-c2ncn(-c3ccc(OC(F)(F)F)cc3)n2)cc1)Nc1ccccc1C1CC1C1CC1` (stereo not drawn) [F49, 1-(2-([1,1′-Bi(cyclopropan)]-2-yl)phenyl)-3-(4-(1-(4-(trifluoromethoxy)phenyl)-1H-1,2,4-triazol-3-yl)phenyl)urea], the mortality at 50 µg/cm2 lay within 0 to 50% in series [1] (setting [4]) and 50 to 100% in series [2] (setting [4]). Also, in series [3], the “YFM % Control (or Mortality) rating” value is given as “D (No activity noticed in this bioassay)”.

Turning to `FC(F)(F)Oc1ccc(-n2cnc(-c3ccc(NC(=S)Nc4ncccc4-c4ccccc4)cc3)n2)cc1` [F50, 1-(3-Phenylpyridin-2-yl)-3-(4-(1-(4-(trifluoromethoxy)phenyl)-1H-1,2,4-triazol-3-yl)phenyl)thiourea], the mortality at 50 µg/cm2 in series [1] (setting [4]) and in series [2] (setting [4]) was 0% in each case. For the same molecule, in series [3], the “YFM % Control (or Mortality) rating” value is “D (No activity noticed in this bioassay)”.

For the molecule `O=C(Nc1ccc(-c2ncn(-c3ccc(OC(F)(F)F)cc3)n2)cc1)Nc1ccccc1Cc1ccccc1` [F51, 1-(2-Benzylphenyl)-3-(4-(1-(4-(trifluoromethoxy)phenyl)-1H-1,2,4-triazol-3-yl)phenyl)urea], the mortality at 50 µg/cm2 in series [1] (setting [4]) and in series [2] (setting [4]) was 0 to 50% in each case. Further, the “YFM % Control (or Mortality) rating” value in series [3] is given as “D (No activity noticed in this bioassay)”.

Consider `CC(C)c1ccccc1NC(=O)Nc1ccc(-c2ncn(-c3ccc(OC(F)(F)C(F)(F)F)cc3)n2)cc1` [F54, 1-(2-Isopropylphenyl)-3-(4-(1-(4-(perfluoroethoxy)phenyl)-1H-1,2,4-triazol-3-yl)phenyl)urea], for which the mortality at 50 µg/cm2 in series [1] (setting [4]) and in series [2] (setting [4]) was 50 to 100% in each case. Moreover, the “YFM % Control (or Mortality) rating” value in series [3] is recorded as “D (No activity noticed in this bioassay)”.

As for `FC(F)(F)Oc1ccc(-n2cnc(-c3ccc(NC(=S)Nc4ncccc4-c4cccnc4)cc3)n2)cc1` [F56, 1-([3,3′-Bipyridin]-2-yl)-3-(4-(1-(4-(trifluoromethoxy)phenyl)-1H-1,2,4-triazol-3-yl)phenyl)thiourea], the results for the mortality at 50 µg/cm2 in series [1] (setting [4]) and in series [2] (setting [4]) were 0 to 50% and 50 to 100%, respectively. Moreover, the “YFM % Control (or Mortality) rating” value in series [3] is listed as “D (No activity noticed in this bioassay)”.

Take `CSc1ccccc1-c1cccnc1NC(=O)Nc1ccc(-c2ncn(-c3ccc(OC(F)(F)F)cc3)n2)cc1` [F59, 1-(3-(2-(Methylthio)phenyl)pyridin-2-yl)-3-(4-(1-(4-(trifluoromethoxy)phenyl)-1H-1,2,4-triazol-3-yl)phenyl)urea]: the mortality at 50 µg/cm2 in series [1] (setting [4]) and in series [2] (setting [4]) was 50 to 100% throughout. Also, the “YFM % Control (or Mortality) rating” value in series [3] is listed as “D (No activity noticed in this bioassay)”.

With `C=C(C)c1ccccc1NC(=O)Nc1ccc(-c2ncn(-c3ccc(OC(F)(F)F)cc3)n2)cc1` [F61, 1-(2-(Prop-1-en-2-yl)phenyl)-3-(4-(1-(4-(trifluoromethoxy)phenyl)-1H-1,2,4-triazol-3-yl)phenyl)urea], the mortality at 50 µg/cm2 in series [1] (setting [4]) and in series [2] (setting [4]) was 50 to 100% in each case. Besides, in series [3], the “YFM % Control (or Mortality) rating” value is “D (No activity noticed in this bioassay)”.

On to `O=C(Nc1ccc(-c2ncn(-c3ccc(OC(F)(F)F)cc3)n2)cc1)Nc1ccccc1-c1cccnc1` [F62, 1-(2-(Pyridin-3-yl)phenyl)-3-(4-(1-(4-(trifluoromethoxy)phenyl)-1H-1,2,4-triazol-3-yl)phenyl)urea], for which the mortality at 50 µg/cm2 in series [1] (setting [4]) and in series [2] (setting [4]) was 50 to 100% each time. The “YFM % Control (or Mortality) rating” value in series [3] was “B (More than 0 - Less than 80)”.

As to `O=C(Nc1ccc(-c2ncn(-c3ccc(OC(F)(F)F)cc3)n2)cc1)Nc1ccccc1C(F)(F)F` [F64, 1-(4-(1-(4-(trifluoromethoxy)phenyl)-1H-1,2,4-triazol-3-yl)phenyl)-3-(2-(trifluoromethyl)phenyl)urea], the mortality at 50 µg/cm2 in series [1] (setting [4]) and in series [2] (setting [4]) was 50 to 100% in each case. For the same molecule, in series [3], the “YFM % Control (or Mortality) rating” value is given as “B (More than 0 - Less than 80)”.

`CC(C)c1ccccc1NC(=S)NCCCc1ccc(-c2ncn(-c3ccc(OC(F)(F)F)cc3)n2)cc1` [F76, 1-(2-isopropylphenyl)-3-(3-(4-(1-(4-(trifluoromethoxy)phenyl)-1H-1,2,4-triazol-3-yl)phenyl)propyl)thiourea]: the mortality at 50 µg/cm2 in series [1] and in series [2] was 50 to 100% each time. For the same molecule, in series [3], the “YFM % Control (or Mortality) rating” value is “A (80-100)”.

As for `Cc1ccccc1NC(=O)NCCCc1ccc(-c2ncn(-c3ccc(OC(F)(F)F)cc3)n2)cc1` [F77, 1-(o-tolyl)-3-(3-(4-(1-(4-(trifluoromethoxy)phenyl)-1H-1,2,4-triazol-3-yl)phenyl)propyl)urea], the mortality at 50 µg/cm2 in series [1] (setting [4]) and in series [2] (setting [4]) was 50 to 100% throughout. In addition, the “YFM % Control (or Mortality) rating” value in series [3] was “A (80-100)”.

Take `CC(C)c1ccccc1NC(=O)NCCCc1ccc(-c2ncn(-c3ccc(OC(F)(F)F)cc3)n2)cc1` [F78, 1-(2-Isopropylphenyl)-3-(3-(4-(1-(4-(trifluoromethoxy)phenyl)-1H-1,2,4-triazol-3-yl)phenyl)propyl)urea]: the mortality at 50 µg/cm2 in series [1] (setting [4]) and in series [2] (setting [4]) was 50 to 100% in each case. For the same molecule, in series [3], the “YFM % Control (or Mortality) rating” value is given as “A (80-100)”.

`COc1cccc(NC(=O)NCCCc2ccc(-c3ncn(-c4ccc(OC(F)(F)F)cc4)n3)cc2)c1` [F80, 1-(3-Methoxyphenyl)-3-(3-(4-(1-(4-(trifluoromethoxy)phenyl)-1H-1,2,4-triazol-3-yl)phenyl)propyl)urea]: the mortality at 50 µg/cm2 in series [1] (setting [4]) and in series [2] (setting [4]) was 50 to 100% each time. For the same molecule, in series [3], the “YFM % Control (or Mortality) rating” value is listed as “A (80-100)”.
